Data set [1] has as its target NACHT, LRR and PYD domains-containing protein 3 (Mus musculus, UniProt Q8R4B8). Put plainly: Inhibition of NLRP3 in mouse J774A.1 cells infected with FLA-ST assessed as inhibition of LPS- induced IL-1beta production by ELISA. The data set is classed as cell-based, J774.A1. In general terms: ELISA stands for enzyme-linked immunosorbent assay.
Data set [2] in a line: Cytotoxicity against human HEK293T cells assessed as reduction in cell viability at 24 hrs by CCK8 assay. The data set is classed as cell-based, HEK-293T. The note with it: read-out: TD50.
Data set [3] can be described thus: Selectivity index, ratio of TC50 for cytotoxicity against human HEK293T cells to IC50 for inhibition of NLRP3 in mouse J774A.1 cells.
Data set [4] is described as follows: Stability assessed as glutathione reactivity of compound incubated for 24 hrs. It is filed as physicochemical.

22 compounds from ChEMBL document CHEMBL4814056, “Discovery of chalcone analogues as novel NLRP3 inflammasome inhibitors with potent anti-inflammation activities” (Eur J Med Chem, 2021) can be followed below.

In general, IC50 refers to the point on the concentration scale where inhibition reaches its midpoint.

NACHT, LRR and PYD domains-containing protein 3, sequence (Q8R4B8 whole entry, the tested form may be a part): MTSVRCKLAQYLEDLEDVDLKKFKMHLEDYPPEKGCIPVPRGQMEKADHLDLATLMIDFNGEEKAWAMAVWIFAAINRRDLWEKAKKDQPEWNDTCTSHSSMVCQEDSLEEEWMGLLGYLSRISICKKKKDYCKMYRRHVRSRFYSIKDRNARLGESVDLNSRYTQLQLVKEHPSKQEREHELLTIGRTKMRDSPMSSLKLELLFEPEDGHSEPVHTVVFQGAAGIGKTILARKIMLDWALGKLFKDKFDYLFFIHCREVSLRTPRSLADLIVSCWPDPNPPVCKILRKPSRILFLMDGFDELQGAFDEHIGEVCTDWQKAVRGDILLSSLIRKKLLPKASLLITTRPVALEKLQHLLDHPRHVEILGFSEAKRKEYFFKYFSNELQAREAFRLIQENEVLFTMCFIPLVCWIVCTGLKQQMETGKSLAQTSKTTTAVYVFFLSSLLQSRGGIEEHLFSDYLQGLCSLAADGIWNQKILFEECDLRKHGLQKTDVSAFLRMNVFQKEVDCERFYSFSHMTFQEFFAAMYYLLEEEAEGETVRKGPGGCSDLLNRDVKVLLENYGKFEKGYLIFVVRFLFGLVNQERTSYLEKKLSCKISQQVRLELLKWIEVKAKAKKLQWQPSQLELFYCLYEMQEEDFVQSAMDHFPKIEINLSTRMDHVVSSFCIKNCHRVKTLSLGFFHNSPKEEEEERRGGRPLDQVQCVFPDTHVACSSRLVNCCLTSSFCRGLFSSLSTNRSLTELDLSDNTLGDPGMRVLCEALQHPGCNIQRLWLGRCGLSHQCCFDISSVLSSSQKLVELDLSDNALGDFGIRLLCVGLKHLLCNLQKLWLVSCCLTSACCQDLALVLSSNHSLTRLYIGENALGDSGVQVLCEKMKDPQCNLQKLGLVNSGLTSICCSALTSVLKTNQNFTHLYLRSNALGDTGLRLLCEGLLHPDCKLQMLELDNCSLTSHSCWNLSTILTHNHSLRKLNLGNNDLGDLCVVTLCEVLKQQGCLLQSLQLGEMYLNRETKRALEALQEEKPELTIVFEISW

With `Cc1cc(/C=C/C(=O)c2ccc(NS(=O)(=O)c3ccc(F)cc3)cc2)cc(C)c1O`, the IC50 in data set [1] was 5 µM.

For `CSc1ccc(C(=O)/C=C/c2cc(C)c(OCCCN3CCOCC3)c(C)c2)cc1`, the IC50 in data set [1] came to 21.9 µM. The same measure, in the same setting: the result for `COc1c(C)cc(/C=C/C(=O)c2ccc(NC(=O)NC(C)C)cc2)cc1C` reads 33.2 µM; that for `Cc1cc(/C=C/C(=O)c2ccc(S(C)(=O)=O)cc2)cc(C)c1O`, 12.9 µM; that for `CSc1ccc(C(=O)/C=C/c2ccc(O)c(F)c2)cc1`, 10.7 µM.

With `CSc1ccc(C(=O)/C=C/c2ccc(O)cc2F)cc1`, the 50% inhibitory concentration (IC50) in data set [1] amounted to 12.7 µM. In the case of `CCc1cc(/C=C/C(=O)c2ccc(SC)cc2)cc(CC)c1O`, in data set [1], the IC50 was 11.7 µM. Same read-out and setting: the result for `Cc1cc(/C=C/C(=O)c2ccc([S+](C)[O-])cc2)cc(C)c1O` (configuration not stated) reads 10.6 µM; that for `CSc1ccc(C(=O)/C=C/c2ccc(C(=O)O)cc2)cc1`, 3.5 µM. Still for that read-out and setting: the value for `COc1c(C)cc(/C=C/C(=O)c2ccc(SC)cc2)cc1C` was 49.5 µM; that for `Cc1cc(/C=C/C(=O)c2ccc(Cl)cc2)cc(C)c1O` was 3.9 µM; that for `CSc1ccc(C(=O)/C=C/c2cc(C)c(OCC(=O)O)c(C)c2)cc1` was greater than 40 µM. With `Cc1cc(/C=C/C(=O)c2ccc(-c3cccs3)cc2)cc(C)c1O`, in data set [1], the IC50 was greater than 40 µM. Same read-out and setting: the value for `CSc1ccc(C(=O)/C=C/c2ccc(O)c(Cl)c2)cc1` was 9.7 µM. For `CSc1ccc(C(=O)/C=C/c2cc(C)c(O)c(C)c2)cc1`, the CC50 at 24 h in data set [2] is 86.2 µM. For the same compound, the “Selectivity Index” value in data set [3] worked out at 41. For the same compound, in data set [1], the half-maximal inhibitory concentration (IC50) amounted to 2.1 µM. Moreover, the Stabilty result in data set [4] was “Stable”. For the compound `COc1cc(/C=C/C(=O)c2ccc(SC)cc2)cc(OC)c1O`, the IC50 in data set [1] was greater than 40 µM. Still for that read-out and setting: the value for `COc1c(C)cc(/C=C/C(=O)c2ccc(N)cc2)cc1C` was 5.7 µM; that for `Cc1cc(/C=C/C(=O)c2ccc(NS(=O)(=O)NC(C)C)cc2)cc(C)c1O` was 3.4 µM. For `COc1c(C)cc(/C=C/C(=O)c2ccc(NC(=O)Nc3ccc(C)cc3)cc2)cc1C`, in data set [1], the IC50 was 38.7 µM. For `CSc1ccc(C(=O)/C=C/c2cc(C)c(OC(C)(C)C(=O)O)c(C)c2)cc1` [ELAFIBRANOR], the CC50 at 24 h in data set [2] amounted to 142 µM. Further, the “Selectivity Index” value in data set [3] is 3.6. Also, in data set [1], the half-maximal inhibitory concentration (IC50) stood at 39.6 µM. For the compound `Cc1cc(/C=C/C(=O)c2ccc(I)cc2)cc(C)c1O`, in data set [1], the IC50 was found to be 28.6 µM.

For the compound `CSc1ccc(C(=O)/C=C/c2cc(C)c(OCCO)c(C)c2)cc1`, the IC50 in data set [1] is 12.7 µM.
